One assay addresses T1, hAMY3R (Homo sapiens, UniProt O60896+P30988).
T1 sequence (P30988 25-474): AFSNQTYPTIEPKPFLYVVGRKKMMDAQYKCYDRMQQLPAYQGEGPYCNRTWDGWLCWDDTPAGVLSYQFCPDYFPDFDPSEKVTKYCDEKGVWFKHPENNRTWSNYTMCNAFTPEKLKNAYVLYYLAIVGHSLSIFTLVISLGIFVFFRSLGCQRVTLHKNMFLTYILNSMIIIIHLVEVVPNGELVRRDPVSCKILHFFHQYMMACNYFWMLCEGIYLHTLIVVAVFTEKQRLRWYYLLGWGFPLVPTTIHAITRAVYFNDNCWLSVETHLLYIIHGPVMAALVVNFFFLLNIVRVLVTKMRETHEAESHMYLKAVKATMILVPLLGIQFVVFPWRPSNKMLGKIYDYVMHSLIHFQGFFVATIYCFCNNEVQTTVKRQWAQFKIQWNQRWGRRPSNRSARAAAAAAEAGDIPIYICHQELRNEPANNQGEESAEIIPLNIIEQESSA
T1 sequence (O60896 24-148 partner): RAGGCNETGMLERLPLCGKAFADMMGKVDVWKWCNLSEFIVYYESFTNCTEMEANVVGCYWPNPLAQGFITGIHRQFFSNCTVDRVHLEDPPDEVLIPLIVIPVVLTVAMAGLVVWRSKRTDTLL
Nature of the assay: scintillation proximity binding assay, hAMY3R membranes. The arrangement: expressed in transfected cells; host or cells: BHK tk-ts 13, transient co-transfection; membranes for the SPA, whole cells for the species-specific assays. The following applies: for ratio hCTR/hAMY3R: ratio of binding IC50 values. Here is the method: (§1) The apparent binding affinities were determined using a scintillation proximity assay with beads from PerkinElmer and cell membranes containing the AMY3R or CTRs. […] Membranes were harvested and membranes were prepared and kept at −80 °C until use. The assay was performed in a 384-well Optiplate (PerkinElmer). Membranes were mixed with scintillation proximity assay beads in a 1:1 ratio. […] Samples were analyzed on a TopCounter (Packard). The IC50 values were calculated using GraphPad Prism. See Supporting Information S7: SAR Screening Assay Methods (Binding Assays (Human and Rat)) for more information.
(§2) Binding Assays (Human and Rat). Brief descriptions of the methods used to determine binding affinities for SAR analysis are described below. Curves and IC50 values were plotted and calculated in GraphPad Prism using nonlinear regression (one site binding competition analysis), with pIC50 values […]
(§3) values were used to calculate the binding affinity ratios in order to express the selectivity of compounds for the AMY3R versus the CTR.
(§4) CTR Binding Assay. The binding assay was performed using scintillation proximity assay (SPA) beads (RPNQ0001) from PerkinElmer and cell membranes containing either the hCTR or rCTR. BHK […]
(§5) Membranes were prepared in the following way: the cells were rinsed with PBS and incubated with Versene for approximately 5 min before harvesting. The cells were flushed with PBS and the cell-suspension was centrifuged for 5 min at 1000 rpm. Cells were homogenized (Ultra Turrax) in a buffer […]
(§6) containing 20 mM Na-HEPES and 0.1 mM EDTA (pH 7.4, buffer 2). The resulting pellet was re-suspended in buffer 2 and protein concentration was measured (BCA protein assay, Pierce). The homogenate was kept cold during the whole procedure. The membranes were stored at –80 °C until […]
(§7) The binding assay was performed in a 384-well Optiplate (PerkinElmer) in a total volume of 40 μL.
(§8) Membranes were mixed with SPA beads in a 1:1 ratio. […]
(§9) mg/well. Test compounds were dissolved in DMSO and further diluted in assay buffer (50 mM HEPES, pH 7.4, 1 mM CaCl2, 5 mM MgCl2, 0.1% ovalbumin, and 0.02% Tween-20).
(§10) Calcitonin (NEX422 PerkinElmer) was dissolved in assay buffer and added to the Optiplate at a final […]
(§11) prior to centrifugation (1500 rpm, 10 min). Samples were analyzed on TopCounter (Packard).
(§12) AMY3R Binding Assay. The binding assay was performed using SPA beads (RPNQ0001) from PerkinElmer and cell membranes containing either the hAMY3R or rAMY3R. BHK tk-ts 13 cells were […]
(§13) and cultured as described above. Membranes were prepared in the following way: the cells were rinsed with PBS and incubated with Versene for approximately 5 min before harvesting. The cells were flushed with PBS and the cell-suspension was centrifuged for 5 min at 1000 rpm. Cells were homogenized (Ultra Turrax) in a buffer containing 20 mM Na-HEPES and 10 mM EDTA (pH 7.4), and […]
(§14) The resulting pellet was re-suspended, homogenized, and
(§15) 7.4, buffer 2). The resulting pellet was re-suspended in buffer 2 and protein concentration was measured (BCA protein assay, Pierce). The homogenate was kept cold during the whole procedure.
(§16) The membranes were stored at –80 °C until use.
(§17) Membranes were mixed with SPA beads in a 1:1 ratio. The final concentration of SPA beads was 0.05 mg/well. Test compounds were dissolved in DMSO and further diluted in assay buffer (50 mM […]
(§18) rAMY (NEX448 PerkinElmer) was dissolved in assay buffer and added to the Optiplate at a final
In general terms: Scintillation proximity formats need no separation of bound from free tracer.

A further assay deals with T2, rAMY3R (Rattus norvegicus, UniProt P32214+Q9JJ73).
T2 sequence (P32214 25-479 isoform P32214-2 limits assumed): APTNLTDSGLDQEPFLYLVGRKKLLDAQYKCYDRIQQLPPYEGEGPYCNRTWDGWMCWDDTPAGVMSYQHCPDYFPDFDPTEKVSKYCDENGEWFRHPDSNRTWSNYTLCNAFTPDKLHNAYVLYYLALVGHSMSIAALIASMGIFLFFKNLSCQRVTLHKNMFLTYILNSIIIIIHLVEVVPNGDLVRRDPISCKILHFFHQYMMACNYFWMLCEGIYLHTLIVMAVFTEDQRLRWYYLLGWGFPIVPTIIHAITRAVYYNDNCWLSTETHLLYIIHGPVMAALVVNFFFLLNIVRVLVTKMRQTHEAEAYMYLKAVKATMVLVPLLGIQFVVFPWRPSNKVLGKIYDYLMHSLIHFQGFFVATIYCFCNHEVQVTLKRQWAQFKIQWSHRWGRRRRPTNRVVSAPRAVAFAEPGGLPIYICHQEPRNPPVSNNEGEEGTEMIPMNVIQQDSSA
T2 sequence (Q9JJ73 23-147 partner): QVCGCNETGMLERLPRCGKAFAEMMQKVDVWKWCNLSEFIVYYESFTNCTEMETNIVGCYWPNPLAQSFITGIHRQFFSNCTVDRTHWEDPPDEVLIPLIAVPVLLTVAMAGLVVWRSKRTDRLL
Nature of the assay: scintillation proximity binding assay, rAMY3R membranes. The arrangement: expressed in transfected cells; host or cells: BHK tk-ts 13, transient co-transfection (FuGENE 6). The following applies: for ratio rCTR/rAMY3R: ratio of binding IC50 values. How it is done: as §1, §2, §3, §4, §5, §6, §7, §8, §9, §10, §11, §12, §13, §14, §15, §16, §17, §18

Where [1] appears, read: SPA binding assay, Tables S13 and S15.
[2] abbreviates: SPA, BHK cell membranes, 125I-rat amylin, 120 min 25 °C, read-out: hAMY3R IC50.

Read-outs that look alike come from different tables or passages of the source. Numbered stars: 1 amine (or outer) side, 2 acyl side, 3 side chain; on linkers, the order of the positions; unused ones are H or OH. Bridge positions count the residues as written; N and C are the ends. Side chains are listed from the residue outwards. Peptide text beside a SMILES is read from it. * marks the point of attachment. C20 diacid = O=C(O)CCCCCCCCCCCCCCCCCCC(=O)*; γGlu = O=C(O)[C@H](CCC(=O)[*:2])N[*:1]

`CC[C@H](C)[C@H](NC(=O)[C@H](C)NC(=O)CNC(=O)[C@H](Cc1ccccc1)NC(=O)[C@H](CC(N)=O)NC(=O)[C@@H]1CCCN1C(=O)[C@H](CO)NC(=O)[C@H](CO)NC(=O)[C@H](Cc1c[nH]cn1)NC(=O)[C@H](CCCNC(=N)N)NC(=O)[C@H](CC(C)C)NC(=O)[C@H](Cc1ccccc1)NC(=O)[C@H](CCC(=O)O)NC(=O)[C@H](C)NC(=O)[C@H](CC(C)C)NC(=O)[C@H](CCCNC(=N)N)NC(=O)[C@H](CCC(N)=O)NC(=O)[C@@H](NC(=O)[C@H](C)NC(=O)[C@@H]1CSSC[C@H](NC(=O)[C@@H](N)CCCCNC(=O)CC[C@H](NC(=O)CCCCCCCCCCCCCCCCCCC(=O)O)C(=O)O)C(=O)N[C@@H](CC(N)=O)C(=O)N[C@@H]([C@@H](C)O)C(=O)N[C@@H](C)C(=O)N[C@@H]([C@@H](C)O)C(=O)N1)[C@@H](C)O)C(=O)N1CCC[C@H]1C(=O)N[C@@H](CO)C(=O)N[C@@H](CO)C(=O)N[C@H](C(=O)N[C@@H](CC(N)=O)C(=O)N[C@H](C(=O)NCC(=O)N[C@@H](CO)C(=O)N[C@@H](CCCNC(=N)N)C(=O)N[C@H](C(=O)N[C@@H](Cc1ccc(O)cc1)C(N)=O)[C@@H](C)O)C(C)C)[C@@H](C)O` [Peptide 20] (H-K([γGlu-C20 diacid])CNTATCATQRLAEFLRHSSPNFGAIPSSTNVGSRTY-NH2; disulfide 2-7): the “ratio hCTR/hAMY3R” value on hAMY3R turned out to be 31. The “ratio rCTR/rAMY3R” value on rAMY3R came out at 111.

Consider `CC(C)C[C@H](NC(=O)[C@H](CCCNC(=N)N)NC(=O)[C@H](CCC(N)=O)NC(=O)[C@@H](NC(=O)[C@H](C)NC(=O)[C@@H]1CSSC[C@H](NC(=O)[C@@H](N)CCCCNC(=O)CC[C@H](NC(=O)CC[C@H](NC(=O)CCCCCCCCCCCCCCCCCCC(=O)O)C(=O)O)C(=O)O)C(=O)N[C@@H](CC(N)=O)C(=O)N[C@@H]([C@@H](C)O)C(=O)N[C@@H](C)C(=O)N[C@@H]([C@@H](C)O)C(=O)N1)[C@@H](C)O)C(=O)N[C@@H](C)C(=O)N[C@@H](CC(=O)O)C(=O)N[C@@H](Cc1ccccc1)C(=O)N[C@@H](CC(C)C)C(=O)N[C@@H](CCCNC(=N)N)C(=O)N[C@@H](Cc1c[nH]cn1)C(=O)N[C@@H](CO)C(=O)N[C@@H](CO)C(=O)N[C@@H](CC(N)=O)C(=O)N1CCC[C@H]1C(=O)N[C@@H](Cc1ccccc1)C(=O)NCC(=O)N[C@@H](C)C(=O)N1CCC[C@H]1C(=O)N[C@@H](CC(C)C)C(=O)N[C@@H](CO)C(=O)N[C@@H](CO)C(=O)N[C@H](C(=O)N[C@@H](CC(N)=O)C(=O)N[C@H](C(=O)NCC(=O)N[C@@H](CO)C(=O)N[C@@H](CC(=O)O)C(=O)N[C@H](C(=O)N[C@@H](Cc1ccc(O)cc1)C(N)=O)[C@@H](C)O)C(C)C)[C@@H](C)O` [Peptide 7] (H-K([γGlu-γGlu-C20 diacid])CNTATCATQRLADFLRHSSNPFGAPLSSTNVGSDTY-NH2; disulfide 2-7), for which, at hAMY3R (setting [1]), the “hAMY3R pIC50” value turned out to be 8.95. On hAMY3R (setting [2]), the IC50 came out at 1.12 nM. Also, on hAMY3R, the “ratio hCTR/hAMY3R” value is reported as 10. In addition, the “rAMY3R pIC50” value on rAMY3R (setting [1]) was determined as 9.00. For the same molecule, the “ratio rCTR/rAMY3R” value at rAMY3R came to 7.5.

On to `CC[C@H](C)[C@H](NC(=O)[C@H](C)NC(=O)CNC(=O)[C@H](Cc1ccccc1)NC(=O)[C@H](CC(N)=O)NC(=O)[C@@H]1CCCN1C(=O)[C@H](CO)NC(=O)[C@H](CO)NC(=O)[C@H](Cc1c[nH]cn1)NC(=O)[C@H](CCCNC(=N)N)NC(=O)[C@H](CC(C)C)NC(=O)[C@H](Cc1ccccc1)NC(=O)[C@H](CC(N)=O)NC(=O)[C@H](C)NC(=O)[C@H](CC(C)C)NC(=O)[C@H](CCCNC(=N)N)NC(=O)[C@H](CCC(N)=O)NC(=O)[C@@H](NC(=O)[C@H](C)NC(=O)[C@@H]1CSSC[C@H](NC(=O)[C@H](CCCCN)NC(=O)CC[C@H](NC(=O)CCCCCCCCCCCCCCCCCCC(=O)O)C(=O)O)C(=O)N[C@@H](CC(N)=O)C(=O)N[C@@H]([C@@H](C)O)C(=O)N[C@@H](C)C(=O)N[C@@H]([C@@H](C)O)C(=O)N1)[C@@H](C)O)C(=O)N1CCC[C@H]1C(=O)N[C@@H](CO)C(=O)N[C@@H](CO)C(=O)N[C@H](C(=O)N1CCC[C@H]1C(=O)N[C@H](C(=O)NCC(=O)N[C@@H](CO)C(=O)N[C@@H](CCC(=O)O)C(=O)N[C@H](C(=O)N[C@@H](Cc1ccc(O)cc1)C(N)=O)[C@@H](C)O)C(C)C)[C@@H](C)O` [Peptide 11] ({C20 diacid-γGlu}-KCNTATCATQRLANFLRHSSPNFGAIPSSTPVGSETY-NH2; disulfide 2-7), for which the IC50 is 0.589 nM on hAMY3R (SPA binding assay, Tables S13 and S15, read-out: hAMY3R pIC50 (converted)); 0.589 nM at hAMY3R (setting [2]); 1.17 nM at rAMY3R (SPA binding assay, Tables S13 and S15, read-out: rAMY3R pIC50 (converted)); 1.17 nM at rAMY3R (SPA, BHK cell membranes, 125I-rat amylin, 120 min 25 °C, read-out: rAMY3R IC50). Moreover, the “ratio hCTR/hAMY3R” value on hAMY3R is listed as 20. Further, the “ratio rCTR/rAMY3R” value at rAMY3R was found to be 44.

The record behind these values is paper PMC11284788, “NN1213 – A Potent, Long-Acting, and Selective Analog of Human Amylin” (Journal of Medicinal Chemistry, 2024).
